Results as given in ChEMBL document CHEMBL1137189, “Syntheses and anti-MRSA activities of the C3 analogs of mansonone F, a potent anti-bacterial sesquiterpenoid: insights into its structural requirements for anti-MRSA activity” (2004).
In brackets after ≈: the same amount, converted by molar mass.

These compounds were tested on Staphylococcus aureus (assay: Minimum inhibitory concentration against methicillin-resistant Staphylococcus aureus).
Format: functional

Structure (SMILES)	MIC50	MIC90
CC1=C2OCC(C)(O)c3ccc(C)c(c32)C(=O)C1=O (configuration not stated)	16 µg/mL (≈ 61.9 µM)	> 32 µg/mL
CCCCC1=COC2=C(C)C(=O)C(=O)c3c(C)ccc1c32	8 µg/mL (≈ 28.3 µM)	8 µg/mL (≈ 28.3 µM)
CC1=C2OC=C(C(F)(F)F)c3ccc(C)c(c32)C(=O)C1=O	16 µg/mL (≈ 54.4 µM)	> 32 µg/mL
CC1=C2OCCc3ccc(C)c(c32)C(=O)C1=O	16 µg/mL (≈ 70.1 µM)	16 µg/mL (≈ 70.1 µM)
CC1=C2OC=C(CCO)c3ccc(C)c(c32)C(=O)C1=O	> 32 µg/mL	> 32 µg/mL
C=CC1=COC2=C(C)C(=O)C(=O)c3c(C)ccc1c32	> 32 µg/mL	> 32 µg/mL
COC1=C(C)C(=O)C(=O)c2c(C)cccc21	> 32 µg/mL	> 32 µg/mL
CCC1=COC2=C(C)C(=O)C(=O)c3c(C)ccc1c32	4 µg/mL (≈ 15.7 µM)	4 µg/mL (≈ 15.7 µM)
CC1=C2OCC(C)c3ccc(C)c(c32)C(=O)C1=O (configuration not stated) [MANSONONE E]	8 µg/mL (≈ 33 µM)	16 µg/mL (≈ 66 µM)
CCOC(=O)CC1COC2=C(C)C(=O)C(=O)c3c(C)ccc1c32 (configuration not stated)	16 µg/mL (≈ 50.9 µM)	32 µg/mL (≈ 102 µM)
COC1=CC(=O)C(=O)C=C1C	> 32 µg/mL	> 32 µg/mL
CC1=C2OC=Cc3ccc(C)c(c32)C(=O)C1=O	8 µg/mL (≈ 35.4 µM)	8 µg/mL (≈ 35.4 µM)
CC1=C2OC=C(C#N)c3ccc(C)c(c32)C(=O)C1=O	8 µg/mL (≈ 31.8 µM)	16 µg/mL (≈ 63.7 µM)
CC1=COc2c(C)ccc3c(C)ccc1c23	> 32 µg/mL	> 32 µg/mL
CC1=C2OCC(CC(=O)O)c3ccc(C)c(c32)C(=O)C1=O (configuration not stated)	> 32 µg/mL	> 32 µg/mL
CCC1(O)COC2=C(C)C(=O)C(=O)c3c(C)ccc1c32 (configuration not stated)	16 µg/mL (≈ 58.8 µM)	16 µg/mL (≈ 58.8 µM)
CC1=C2OC=C(C(C)C)c3ccc(C)c(c32)C(=O)C1=O	4 µg/mL (≈ 14.9 µM)	4 µg/mL (≈ 14.9 µM)
CC1=C2OCC(Cl)(C(F)(F)F)c3ccc(C)c(c32)C(=O)C1=O (configuration not stated)	16 µg/mL (≈ 48.4 µM)	16 µg/mL (≈ 48.4 µM)
CN[C@H](CC(C)C)C(=O)N[C@H]1C(=O)N[C@@H](CC(N)=O)C(=O)N[C@H]2C(=O)N[C@H]3C(=O)N[C@H](C(=O)N[C@H](C(=O)O)c4cc(O)cc(O)c4-c4cc3ccc4O)[C@H](O)c3ccc(c(Cl)c3)Oc3cc2cc(c3O[C@@H]2O[C@H](CO)[C@@H](O)[C@H](O)[C@H]2O[C@H]2C[C@](C)(N)[C@H](O)[C@H](C)O2)Oc2ccc(cc2Cl)[C@H]1O [VANCOMYCIN]	2 µg/mL (≈ 1.38 µM)	2 µg/mL (≈ 1.38 µM)
CC1=COc2c(C)cc([N+](=O)[O-])c3c(C)ccc1c23	> 32 µg/mL	> 32 µg/mL
CCC1COC2=C(C)C(=O)C(=O)c3c(C)ccc1c32 (configuration not stated)	32 µg/mL (≈ 125 µM)	32 µg/mL (≈ 125 µM)
